Molecular target: T1, GSPT1 (Homo sapiens, UniProt P15170+Q96SW2)
T1 construct: Whole cell lysates were prepared from MV4-11 CD33-positive AML cells; endogenous in cells; host or cells: MV4-11 (CD33-positive AML cells)
Assay: GSPT1 degradation by western blot in MV4-11 cells
Type: cell-based
Conditions: FIG. 8
From the text: GSPT1 was probed by commercially available rabbit-anti-GSPT1 antibody (Abcam) followed by anti-rabbit HRP conjugated secondary antibody (Cell Signaling Technology) and detected by chemiluminescent substrate (ThermoFisher). PVDF membrane was then stripped and re-probed with beta-Actin-HRP conjugated antibody (Cell Signaling Technology).

T1 sequence (P15170 whole entry): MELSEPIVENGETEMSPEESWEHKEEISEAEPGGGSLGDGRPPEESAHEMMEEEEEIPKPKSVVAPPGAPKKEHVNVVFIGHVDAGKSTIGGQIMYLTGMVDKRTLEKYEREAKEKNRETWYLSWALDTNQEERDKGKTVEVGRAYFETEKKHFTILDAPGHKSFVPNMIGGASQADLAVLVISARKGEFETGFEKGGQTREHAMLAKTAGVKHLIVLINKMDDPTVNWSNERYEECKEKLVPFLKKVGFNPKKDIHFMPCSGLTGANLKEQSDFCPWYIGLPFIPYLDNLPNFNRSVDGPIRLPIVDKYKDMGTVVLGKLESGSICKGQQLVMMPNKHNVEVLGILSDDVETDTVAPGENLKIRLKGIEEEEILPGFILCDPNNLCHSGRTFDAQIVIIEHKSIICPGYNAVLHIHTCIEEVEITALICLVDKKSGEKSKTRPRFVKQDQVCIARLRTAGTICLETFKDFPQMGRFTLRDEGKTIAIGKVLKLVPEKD
T1 sequence (Q96SW2 whole entry): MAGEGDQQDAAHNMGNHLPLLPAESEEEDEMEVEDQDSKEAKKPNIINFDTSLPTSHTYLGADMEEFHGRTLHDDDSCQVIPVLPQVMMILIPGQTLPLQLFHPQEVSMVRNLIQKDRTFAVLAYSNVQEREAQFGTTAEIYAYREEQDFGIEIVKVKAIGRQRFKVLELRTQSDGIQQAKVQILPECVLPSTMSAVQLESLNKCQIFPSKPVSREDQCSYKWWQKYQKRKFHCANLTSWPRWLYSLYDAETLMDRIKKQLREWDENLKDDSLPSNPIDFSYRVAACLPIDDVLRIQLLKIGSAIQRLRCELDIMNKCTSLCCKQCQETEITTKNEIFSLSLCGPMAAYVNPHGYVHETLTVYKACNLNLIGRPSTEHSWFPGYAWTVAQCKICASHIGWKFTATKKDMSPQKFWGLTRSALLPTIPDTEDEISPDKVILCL
T1 sequence (Q16531 whole entry partner): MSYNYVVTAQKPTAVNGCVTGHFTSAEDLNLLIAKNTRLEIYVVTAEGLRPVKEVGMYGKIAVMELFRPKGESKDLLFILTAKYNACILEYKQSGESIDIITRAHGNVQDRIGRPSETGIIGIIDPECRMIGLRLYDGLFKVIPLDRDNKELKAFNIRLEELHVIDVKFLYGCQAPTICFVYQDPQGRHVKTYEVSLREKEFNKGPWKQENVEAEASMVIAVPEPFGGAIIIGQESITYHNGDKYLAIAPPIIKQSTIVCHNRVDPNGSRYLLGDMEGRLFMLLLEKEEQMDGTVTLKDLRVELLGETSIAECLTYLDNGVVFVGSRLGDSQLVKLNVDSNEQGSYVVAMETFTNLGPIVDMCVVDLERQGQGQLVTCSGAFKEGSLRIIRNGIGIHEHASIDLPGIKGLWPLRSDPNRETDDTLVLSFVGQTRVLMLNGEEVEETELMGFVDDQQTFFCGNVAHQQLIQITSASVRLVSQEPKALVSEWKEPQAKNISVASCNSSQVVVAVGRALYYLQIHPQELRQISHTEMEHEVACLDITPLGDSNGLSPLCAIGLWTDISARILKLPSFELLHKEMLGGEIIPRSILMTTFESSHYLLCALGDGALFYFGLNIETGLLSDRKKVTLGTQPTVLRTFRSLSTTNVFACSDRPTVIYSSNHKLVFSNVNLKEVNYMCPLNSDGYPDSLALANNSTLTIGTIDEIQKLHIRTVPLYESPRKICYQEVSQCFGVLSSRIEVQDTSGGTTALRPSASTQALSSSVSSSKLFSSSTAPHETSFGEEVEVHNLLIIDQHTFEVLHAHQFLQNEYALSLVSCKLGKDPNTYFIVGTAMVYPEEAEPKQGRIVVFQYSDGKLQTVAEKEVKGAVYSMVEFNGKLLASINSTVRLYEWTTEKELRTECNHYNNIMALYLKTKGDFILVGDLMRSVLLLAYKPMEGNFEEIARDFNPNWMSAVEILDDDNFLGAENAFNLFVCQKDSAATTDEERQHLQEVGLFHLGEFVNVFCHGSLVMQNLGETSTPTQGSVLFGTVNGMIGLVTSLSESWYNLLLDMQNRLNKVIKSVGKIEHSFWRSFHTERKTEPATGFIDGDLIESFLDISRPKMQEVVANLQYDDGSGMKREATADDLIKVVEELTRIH

## CNCCOCCc1ccc(NC(=O)NCc2ccc3c(c2)CN(C2CCC(=O)NC2=O)C3=O)cc1Cl (centres unmarked) [neoDegrader P1, 1-(3-chloro-4-[2-[2-(methylamino)ethoxy]ethyl]phenyl)-3-[[2-(2,6-dioxopiperidin-3-yl)-1-oxo-3H-isoindol-5-yl]methyl]urea]
MV4-11 cells, 6, 12 and 18 hours
  durability of GSPT1 depletion: transient depletion
MV4-11 cells, as short as 6 hours post-dosing
  decreases in GSPT1 levels: dose-dependent decreases

From patent US20250090681A1, “NEODEGRADER CONJUGATES” (Orum Therapeutics, Inc., priority 2021, published 2025)
